Assay results taken from patent US20250249056A1, “CANCER THERAPIES COMPRISING A NUCLEAR EXPORT INHIBITOR AND AN ONCOLYTIC VIRUS” (priority 2022, published 2025).

Key:
MYXV [1] = assay: Viral replication assay: progeny virus titration on permissive rabbit RK13 cells; type: cell-based, myxoma virus; settings: PANC-1, Colo205, and MDA-MB435; selinexor; 24, 48, 72 h
Description: Viral titers in different human cancer cell lines were determined using a viral replication assay. Cells were seeded in 24-well plates (2×10^5 cells/well). The next day, the cells were treated with different concentrations of leptomycin B (LMB) or selinexor diluted in DMEM for 1 hour. MYXV was added to the cells and incubated for one hour at 37° C. After 1 hour, the unbound viruses were washed away using DMEM, and DMEM with LMB or selinexor was added to the cells. Cells were harvested in DMEM without LMB or selinexor at the indicated time points. After harvesting the cells, they were stored at −80° C. until processing. Samples were subjected to three freeze/thaw cycles and one-minute sonification to lyse cells and release the viral particles. Afterwards, different dilutions were prepared in DMEM and plated on rabbit RK13 and foci were counted after 48 hours using a fluorescent microscope. All assays and dilutions were performed in triplicate.

MYXV [2] = assay: MYXV infection of 3D spheroid cultures of human cancer cells (GFP/TdTomato fluorescence); type: cell-based, myxoma virus
Excerpt: In vitro three-dimensional (3D) cell culture allows cells to contact each other and form a platform representing in vivo tumor masses (Lv, D., et al., 2017, Oncology Letters, 14:6999-7010). As an initial test whether selinexor can enhance MYXV replication in tumor masses, a 3D cell culture using type 1 collagen was established. The semi-permissive and non-permissive human cancer cells PANC-1 (FIG. 6A), MDA-MB435 (FIG. 6C), HT29 (FIG. 6E), and Colo205 (FIG. 6G) were used to form 3D spheroids in 96 well plates. After several days of incubation, the cells formed spheroids.
After reaching a desirable size, spheroids were mock-treated or treated with different concentrations of selinexor (e.g., 0.1 μM, 1 μM) for one hour then infected with vMyx-GFP-TdTomato (1×10^7 FFU) in the presence of selinexor.
Spheroid Generation and Virus Infection: Different cancer cell lines were grown and maintained as previously described and used for spheroid generation within 2-5 passages. 96-well plates were prepared with rat tail collagen I to form the surface for spheroid culture. On the day of cell seeding for spheroid generation, the cells were dissociated with TrypLE, the TrypLE neutralized with fresh complete media, the cells spun down, and resuspended in fresh complete media. After making a single cell suspension, cells were counted using a Countess II automated cell counter and 1000 cells in 100 μL were plated on the surface of the collagen matrix. The cells were observed daily for spheroid formation. After 5-7 days, when spheroids reached the desired size, they were treated with selinexor and infected with vMyx-GFP-TdTomato.

Colo205 xenograft tumors = assay: Colo205 xenograft tumor model in NSG mice; type: in vivo
Description: (§1) To test the ability of selinexor to enhance MYXV replication in vivo, a xenograft tumor model was established in immunodeficient NSG mice. Human Colo205 (FIG. 7) and HT29 (FIG. 8) cells were injected subcutaneously on both sides of the flank to generate tumors (FIG. 7A). After the tumors size reached between 100-200 mm^3 (2-3 weeks), mice were separated into treatment groups to have approximately equal average tumor sizes. Animals (n=5) were treated with PBS (oral and IT right tumor), selinexor (oral, 15 mg/kg), vMyx-Fluc (wild-type MYXV expressing Firefly luciferase and TdTomato; IT left tumor, 1×10^7 FFU), or selinexor (oral) and vMyx-Fluc (IT left tumor). After 48 hours post-treatment mice were imaged using an IVIS system for luciferase expression. […] Subsequently, mice received 2nd and 3rd doses of selinexor and a second IT injection of MYXV in the same tumor. […] Additionally, tumor burden was measured on both flanks during the course of treatment (FIG. 7F, FIG. 7G, FIG. 8E, and FIG. 8F).
(§2) Animal Studies: Male and female NSG mice were purchased from Jackson laboratory at 6-8 weeks of age. Animals were housed under sterile conditions. The animals were acclimatized for at least seven days before tumor implantation or any experimental procedures. Cells (1×10^6/mouse in 100 μL PBS) were subcutaneously injected into the flanks of NSG mice. When the average tumor volumes reached 50-200 mm^3, the mice were randomized into different treatment groups of five or six animals such that each treatment group had approximately the same average tumor volume. Tumor volume was measured two or three times per week as follows: volume=(length×width^2)/2. When the tumor volume reached 1.5-2 cm^3 animals were euthanized and tumors were collected for histology or processed for virus titration. To detect MYXV replication in the tumor bed luciferin was injected via IP delivery and bioluminescence images taken (Xenogen IVIS 2000).

HT29 xenograft tumors = assay: HT29 xenograft tumor model in NSG mice; type: in vivo
Description: as §1, §2

PANC-1 xenograft tumors = assay: PANC-1 xenograft tumor model in NSG mice; type: in vivo
Description: Based on the in vivo results showing selinexor enhances MYXV replication in the tumor bed and reduces the tumor burden in Colo205 and HT29 xenograft tumors, the treatment was examined in PANC-1 xenograft tumors. Human PANC-1 cells were injected subcutaneously on both sides of the flank to generate tumors (FIG. 11A). After the tumor size reached ˜50-100 mm^3 (2-3 weeks), animals were randomly assigned to treatment groups to have approximately equal average tumor size. Animals (n=6) were then treated with PBS, selinexor, MYXV, or selinexor+MYXV. Animals received a total of four treatments within the first two weeks and tumor burden was measured 2-3 times every week. After the first treatment, mice were imaged using the IVIS system for luciferase expression at 24 and 72 hours post-treatment (FIG. 11B and FIG. 11C). […] After imaging and measuring luciferase signals, three additional treatments to test their therapeutic effect on tumor burden and survival were administered.
Luciferase signals in animals were also measured before the endpoint to confirm the presence of the virus in the tumor bed after the final (fourth) injection. […] Luciferase signal was measured again 23 days after the last viral injection, at which point high luciferase activity was still observed in each group (FIG. 13C). At the endpoint, tumors were collected and virus titration assays were performed (FIG. 13D). […] In both tumors, although not significant, viral load was higher in selinexor+MYXV treated mice than mice treated with MYXV alone.
Animal Studies: Male and female NSG mice were purchased from Jackson laboratory at 6-8 weeks of age. Animals were housed under sterile conditions. The animals were acclimatized for at least seven days before tumor implantation or any experimental procedures. Cells (1×10^6/mouse in 100 μL PBS) were subcutaneously injected into the flanks of NSG mice. […] Tumor volume was measured two or three times per week as follows: volume=(length×width^2)/2. […]

[3] = 48 hours after first vMyx-Fluc IT injection, selinexor oral 15 mg/kg
[4] = both flanks, selinexor oral 15 mg/kg, vMyx-Fluc IT 1×10^7 FFU

## O=C(/C=C\n1cnc(-c2cc(C(F)(F)F)cc(C(F)(F)F)c2)n1)NNc1cnccn1 [selinexor]
MYXV [1]
  increase in virus production compared to infection with MYXV alone: 10-100 fold
MYXV [2]; PANC-1, MDA-MB435, HT29, Colo205 spheroids, selinexor 0.1 or 1 μM, vMyx-GFP-TdTomato 1×10^7 FFU
  GFP (early/late) and TdTomato (late) expression in spheroids by fluorescence microscopy: enhanced
MYXV [2]; selinexor plus MYXV compared to MYXV infection alone
  virus penetration into spheroids: greater penetration into the spheroid interior
MYXV [2]; selinexor-treated vs untreated infected spheroids, 72-96 h post-infection
  quantification of GFP fluorescence in spheroids: significant increase in the level of GFP expression
Colo205 xenograft tumors; [3]
  luciferase expression (IVIS) vs virus alone: significantly higher levels of luciferase
Colo205 xenograft tumors; after second treatment
  luciferase signal (IVIS) vs virus alone: significantly enhanced level of luciferase signal
Colo205 xenograft tumors; [4]
  tumor burden compared to PBS or MYXV-only: significantly reduced tumor burden
HT29 xenograft tumors; [3]
  luciferase expression (IVIS) vs virus alone: significantly higher levels of luciferase
HT29 xenograft tumors; after second treatment
  luciferase signal (IVIS) vs virus alone: significantly enhanced level of luciferase signal
HT29 xenograft tumors; [4]
  tumor burden compared to PBS or MYXV-only: significantly reduced tumor burden
PANC-1 xenograft tumors; 24 and 72 hours after first treatment
  luciferase signals (IVIS) vs virus alone: significantly higher levels of luciferase signals
PANC-1 xenograft tumors; four treatments within first two weeks
  tumor burden compared to PBS or MYXV alone: significant reduction in tumor burden
PANC-1 xenograft tumors; mouse, in vivo
  survival compared to PBS or MYXV alone: survived significantly longer
